Experimental data taken from PMC9820118, “Betulin Acid Ester Derivatives Inhibit Cancer Cell Growth by Inducing Apoptosis through Caspase Cascade Activation: A Comprehensive In Vitro and In Silico Study” (International Journal of Molecular Sciences, 2022).
One block for each compound: values may come before it.

Legend:
MV4-11 cells = assay: Antiproliferative activity, MTT assay, MV4-11 leukemia cells; assay type: cell-based, human; conditions: for IC50: Homo sapiens, MV4-11, 72 h, 72 h incubation, MTT, read-out: Growth inhibition IC50, leukemia cell line MV4-11; for Calculated Selectivity Index SI, MV4-11: IC50 BALB/3T3 / IC50 MV4-11
PC-3 cells = assay: Induction of apoptosis, Annexin V/PI staining, PC-3; assay type: cell-based, human; conditions: about 1.5 × IC50, 72 h
Source text: Apoptosis is one of a cell’s natural mechanisms for programmed cell death. It plays a crucial role in homeostasis by eliminating the unwanted or unnecessary cells. One of the most important functions of apoptosis is prevention of cancer. However, cancer cells often lose the ability to enter the path of apoptosis, which allows them to survive longer and grow in an uncontrolled manner. Regardless of that, apoptosis still remains the most important molecular mechanism to combat cancer cells; therefore, research is conducted to obtain agents with the ability to selectively induce apoptosis in cancer cell lines.
The MV4-11, A549 and PC-3 cells were seeded on 24-well plates (Sarstedt, Germany) for a final volume of 1.5 mL. […] After incubation, the cells were collected and 2 × 10^5 of cells were washed twice with PBS. […] Results were analyzed using Flowing software 2.5.1. […]

caspase-3/7 [1] = assay: Caspase-3/7 activity (AC-DEVD-AMC substrate) in A549 cells; assay type: cell-based, human; set-up: key: +: plus mark represents statistically important elevated activity of caspase 3/7 compared to control
Source text: (§1) Caspase-3 and caspase-7 are cysteine-aspartic acid proteases that can directly execute apoptosis […] sequential activation of caspase-8 or caspase-9. Activation of these enzymes leads to apoptotic cell death; thus, measuring their activity is a good method to determine the pro-apoptotic potential of tested compounds. One of the mechanisms of betulin’s antiproliferative activity is activation of these enzymes; therefore, to further examine the mechanism of action of tested derivatives, we decided to determine their levels.
(§2) The MV4-11, A549 and PC-3 cells were seeded on 48-well plates for a final volume of 1 mL. […] After incubation, the cells were collected and centrifuged (5 min., 4 °C, 250× g). Cells were suspended in 50 µL of ice-cold lysis buffer (50 mM HEPES, 10% (w/v) sucrose, 150 mM NaCl, 2 mM EDTA and 1% (v/v) Triton X-100, pH 7.3, HIIET, Poland) and incubated 30 min. at […]. After the incubation, 40 µL of each sample was transferred to a white, 96-well plate (Corning, CA, USA) containing 160 µL of the reaction buffer (20 mM HEPES, 10 % sucrose, 100 mM NaCl, 1 mM EDTA, 10 mM DTT, 0.02 % Trition X-100, pH 7.3) (HIIET, Wroclaw, Poland) with 9 µM AC-DEVD-AMC (Cayman Chemical) fluorogenic substrate (λex = 360 nm, λem = 460 nm). The fluorescence increase correlated with the caspase-3/7 level was continuously recorded at 37 °C for 120 min using a Biotek Synergy H4 (Biokom, Warsaw, Poland). Compounds were tested in duplicates in a single experiment and each experiment was repeated at least three times independently. Results were normalized to the number of cells in each well and are reported as mean relative caspase-3/7 activity compared to the untreated control sample ± SD.

caspase-3/7 [2] = assay: Caspase-3/7 activity (AC-DEVD-AMC substrate) in PC-3 cells; assay type: cell-based, human; set-up: key to Caspase 3/7 Activity, PC-3: +: plus mark represents statistically important elevated activity of caspase 3/7 compared to control
Source text: as §1, §2

in vitro = conditions: mouse
[3] = Experimental lipophilicity by RP-TLC; conditions: RP-TLC, RP-18 F254S, acetone / Tris buffer pH 7.4, extrapolated to zero acetone
A549 cell line = assay: Antiproliferative activity, SRB assay, A549 lung carcinoma cells; conditions: for Antiproliferative Activity, A549: +/− summary, IC50 vs betulin 1; for IC50: Homo sapiens, A549, 72 h, read-out: Cytotoxicity IC50 against A549 cell line; for Calculated Selectivity Index SI, A549: IC50 BALB/3T3 / IC50 A549
MCF-7 cell line = assay: Antiproliferative activity, SRB assay, MCF-7 breast carcinoma cells; conditions: for IC50: Homo sapiens, MCF7, 72 h, read-out: Cytotoxicity IC50 against MCF-7 cell line; for Calculated Selectivity Index SI, MCF-7: IC50 BALB/3T3 / IC50 MCF-7
PC-3 cell line = assay: Antiproliferative activity, SRB assay, PC-3 prostate carcinoma cells; conditions: for IC50: Homo sapiens, PC-3, 72 h, read-out: Cytotoxicity IC50 against PC-3 cell line; for Calculated Selectivity Index SI, PC-3: IC50 BALB/3T3 / IC50 PC-3
A549 cells = assay: Cell cycle analysis, PI staining flow cytometry, A549; assay type: cell-based, human; conditions: about IC50, 72 h
Experimental: The effects of the selected derivatives on the cell cycle were analyzed by flow cytometry using PI staining.
The MV4-11, A549 and PC-3 cells were seeded on 24-well plates (Sarstedt, Germany) for a final volume of 1.5 mL. […] After incubation, the cells were collected and 1 × 10^6 of cells were washed twice in cold PBS and fixed for 24 h in 70% ethanol at −20 °C, the cells were washed twice in PBS and incubated with RNAse (8 μg/mL, Fermentas, Germany) at 37 °C for 1 h. The cells were stained for 30 min. with propidium iodide (50 μg/mL, Sigma Aldrich, Germany) at 4 °C and the cellular DNA content was analyzed by flow cytometry using BD LSRFortessa cytometer (BD Bioscience, San Jose, CA, USA). Compounds at each concentration were tested at least three times independently. The obtained results were analyzed using Flowing software 2.5.1 (Cell Imaging Core, Turku Centre for Biotechnology, University of Turku and Åbo Akademi University, Turku, Finland).

caspase-3/7 [4] = assay: Caspase-3/7 activity (AC-DEVD-AMC substrate) in MV4-11 cells; assay type: cell-based, human
Source text: as §1
The MV4-11, A549 and PC-3 cells were seeded on 48-well plates for a final volume of 1 mL. […] After incubation, the cells were collected and centrifuged (5 min., 4 °C, 250× g). Cells were suspended in 50 µL of ice-cold lysis buffer (50 mM HEPES, 10% (w/v) sucrose, 150 mM NaCl, 2 mM EDTA and 1% (v/v) Triton X-100, pH 7.3, HIIET, Poland) and incubated 30 min. at 40 °C. […] The fluorescence increase correlated with the caspase-3/7 level was continuously recorded at 37 °C for 120 min using a Biotek Synergy H4 (Biokom, Warsaw, Poland). […]

[5] = Solubility in DMSO for stock preparation; assay type: physicochemical
[6] = Cytotoxicity, SRB assay, normal BALB/3T3 fibroblasts; conditions: mouse
[7] = set-up: method as in earlier work; conditions: literature lipophilicity of RP-TLC reference compounds; cited from earlier work
[8] = 1.5 × IC50, 24 h, several-fold lower at 72 h

SMILES: C=C(C)[C@@H]1CC[C@]2(COC(=O)CCC(=O)N3CCOCC3)CC[C@]3(C)C(CCC4[C@@]5(C)CC[C@H](O)C(C)(C)C5CC[C@]43C)C12 (stereo partly drawn) [2b]
IC50 (MV4-11 cells): 3.94 µM
Calculated Selectivity Index SI, MV4-11 (MV4-11 cells): 6.4
Induction of apoptosis (AnV/PI), PC-3, 72 h (PC-3 cells): shifting the ratio of the living cell population towards apoptotic and necrotic ones
caspase 3/7 activity, A549 (caspase-3/7 [1]; [8]): hugely elevated caspase 3/7 activity
caspase 3/7 activity, A549 (caspase-3/7 [1]; +/− summary vs control): +
caspase-3/7 activity, PC-3 (caspase-3/7 [2]; 1.5 × IC50, 24 and 72 h): very high level of caspase-3/7 after 24 and 72 h
Caspase 3/7 Activity, PC-3 (caspase-3/7 [2]; +/− summary vs control): +
IC50 at 72 h (in vitro): 25 µM
RM0 [3]: 5.024
Antiproliferative Activity, A549 (A549 cell line): +
IC50 (A549 cell line): 8.03 µM
Calculated Selectivity Index SI, A549 (A549 cell line): 3.1
IC50 (MCF-7 cell line): 19.3 µM
Calculated Selectivity Index SI, MCF-7 (MCF-7 cell line): 1.3
Antiproliferative Activity, PC-3 (PC-3 cell line; +/− summary, IC50 vs betulin 1): +
IC50 (PC-3 cell line): 17.9 µM
Calculated Selectivity Index SI, PC-3 (PC-3 cell line): 1.4

SMILES: C=C(C)[C@@H]1CC[C@]2(COC(=O)CCC(=O)N3CCCCC3)CC[C@]3(C)C(CCC4[C@@]5(C)CC[C@H](O)C(C)(C)C5CC[C@]43C)C12 (stereo partly drawn) [2c]
IC50 (MV4-11 cells): 5.78 µM
Calculated Selectivity Index SI, MV4-11 (MV4-11 cells): 5.7
Influence on cell cycle, A549, 72 h (A549 cells): induced cycle arrest in the G0/G1 phase with a decrease in the G2/M phase
caspase 3/7 activity, A549 (caspase-3/7 [1]; [8]): hugely elevated caspase 3/7 activity
caspase 3/7 activity, A549 (caspase-3/7 [1]; +/− summary vs control): +
caspase-3/7 levels, MV4-11, 24 h (caspase-3/7 [4]): increased levels of caspase-3/7
IC50 at 72 h (in vitro): 32.7 µM
RM0 [3]: 5.728
Antiproliferative Activity, A549 (A549 cell line): +
IC50 (A549 cell line): 6.98 µM
Calculated Selectivity Index SI, A549 (A549 cell line): 4.7
IC50 (MCF-7 cell line): 22.2 µM
Calculated Selectivity Index SI, MCF-7 (MCF-7 cell line): 1.5
IC50 (PC-3 cell line): 30.9 µM
Calculated Selectivity Index SI, PC-3 (PC-3 cell line): 1.1

SMILES: C=C(C)[C@@H]1CC[C@]2(COC(=O)CCC(=O)N3CCSCC3)CC[C@]3(C)C(CCC4[C@@]5(C)CC[C@H](O)C(C)(C)C5CC[C@]43C)C12 (stereo partly drawn) [2d]
IC50 (MV4-11 cells): 3.16 µM
Calculated Selectivity Index SI, MV4-11 (MV4-11 cells): 15.8
Influence on cell cycle, A549, 72 h (A549 cells): greater percentage of dead cells with a decrease in G2/M and G0/G1 phases
caspase-3/7 levels, MV4-11, 24 h (caspase-3/7 [4]): increased levels of caspase-3/7
IC50 at 72 h (in vitro): > 50 µM
RM0 [3]: 5.898
IC50 (A549 cell line): 32 µM
Calculated Selectivity Index SI, A549 (A549 cell line): 1.6
IC50 (MCF-7 cell line): 50 µM
Calculated Selectivity Index SI, MCF-7 (MCF-7 cell line): 1.0
IC50 (PC-3 cell line): 50 µM
Calculated Selectivity Index SI, PC-3 (PC-3 cell line): 1.0

SMILES: C=C(C)C1CCC2(COC(=O)C=C(C)C(=O)N3CCCCC3)CCC3(C)C(CCC4C5(C)CCC(O)C(C)(C)C5CCC43C)C12 (stereo not drawn) [3c]
solubility in DMSO [5]: not soluble in DMSO
RM0 [3]: 5.650

SMILES: C=C(C)[C@@H]1CC[C@]2(COC(=O)CCCC(=O)N3CCCCC3)CC[C@]3(C)C(CCC4[C@@]5(C)CC[C@H](O)C(C)(C)C5CC[C@]43C)C12 (stereo partly drawn) [4c]
solubility in DMSO [5]: not soluble in DMSO
RM0 [3]: 5.012

SMILES: C=C(C)[C@@H]1CC[C@]2(COC(=O)CCCCCCCCCC(=O)N3CCCCC3)CC[C@]3(C)C(CCC4[C@@]5(C)CC[C@H](O)C(C)(C)C5CC[C@]43C)C12 (stereo partly drawn) [5c]
solubility in DMSO [5]: not soluble in DMSO
RM0 [3]: 5.768

SMILES: C=C(C)[C@@H]1CC[C@]2(COC(=O)c3cccc(C(=O)N4CCCCC4)c3)CC[C@]3(C)C(CCC4[C@@]5(C)CC[C@H](O)C(C)(C)C5CC[C@]43C)C12 (stereo partly drawn) [7c]
solubility in DMSO [5]: not soluble in DMSO
RM0 [3]: 5.773

SMILES: C=C(C)[C@@H]1CC[C@]2(CO)CC[C@]3(C)[C@H](CC[C@@H]4[C@@]5(C)CC[C@H](O)C(C)(C)[C@@H]5CC[C@]43C)[C@@H]12 [Betulin 1, betulin]
IC50 (MV4-11 cells): 18.2 µM
Calculated Selectivity Index SI, MV4-11 (MV4-11 cells): 1.8
IC50 at 72 h [6]: 31.8 µM
IC50 (A549 cell line): 15.5 µM
Calculated Selectivity Index SI, A549 (A549 cell line): 2.0
IC50 (MCF-7 cell line): 38.8 µM
Calculated Selectivity Index SI, MCF-7 (MCF-7 cell line): 0.8
IC50 (PC-3 cell line): 32.5 µM
Calculated Selectivity Index SI, PC-3 (PC-3 cell line): 1.0

IC50 (MV4-11 cells): 0.01 µM
SMILES: COc1cccc2c1C(=O)c1c(O)c3c(c(O)c1C2=O)C[C@@](O)(C(=O)CO)C[C@@H]3O[C@H]1C[C@H](N)[C@H](O)[C@H](C)O1 [Doxorubicin, doxorubicin, reference compound]
Calculated Selectivity Index SI, MV4-11 (MV4-11 cells): 18.0
IC50 at 72 h ([6]; BALB/3T3 normal fibroblast cells): 0.18 µM
IC50 (A549 cell line): 0.04 µM
Calculated Selectivity Index SI, A549 (A549 cell line): 4.5
IC50 (MCF-7 cell line): 0.08 µM
Calculated Selectivity Index SI, MCF-7 (MCF-7 cell line): 2.3
IC50 (PC-3 cell line): 0.43 µM
Calculated Selectivity Index SI, PC-3 (PC-3 cell line): 0.4

RM0 [3]: 3.54
SMILES: c1ccc(CCc2ccccc2)cc1 [dibenzyl, reference compound]
LogPlit [7]: 4.49
